Test results from paper PMC7336994, “Cytotoxic compounds from the leaves and stems of the endemic Thai plant Mitrephora sirikitiae” (Pharmaceutical Biology, 2020).
Like-named read-outs stand apart in the source and are kept apart here.

Experiments:
[1] = system: P-388 (murine lymphocytic leukaemia); test: SRB cytotoxicity assay, P-388 cells; assay type: cell-based; settings: Mus musculus, read-out: IC50 P-388
Procedure: (§1) The methanol extracts and the isolated compounds were evaluated for their cytotoxic activities against several cell lines, including murine lymphocytic leukaemia (P-388), human oral epidermoid carcinoma (KB), human colon carcinoma (Col-2 and HT-29), human breast cancer (MCF-7), human lung carcinoma (Lu-1 and A549), rat glioma (ASK), and noncancerous human embryonic kidney cell (HEK-293) by sulforhodamine B (SRB) assay in 96-well microtiter plates (Skehan et al. [1990]). This method measures the cellular protein content of cultures in 96-well microtiter plates. The cell lines were seeded into 96-well microtiter plates and treated with the test compounds at concentrations of 0.16–20 µg/mL for 72 h, except for the P-388 cells, which were treated for 48 h. Then the cell cultures were fixed with 20% trichloroacetic acid (Merck) and stained with 0.4% SRB (Sigma-Aldrich) dissolved in 1% acetic acid (Merck) for 1 h. The cellular-protein-bound dye was extracted with 10 mM unbuffered Trisbase solution (pH 10.5) (Sigma-Aldrich) for the determination of optical density at 510 nm with a microtiter plate reader (Thermo Scientific™ Multiskan™ GO Microplate Spectrophotometer). The cytotoxic potency was expressed as median inhibition concentrations (IC50), the concentration that inhibits 50% of cell viability (µg/mL and µM). The IC50 values were determined from the nonlinear regression curve fit in GraphPad Prism software (version 5). Ellipticine (Sigma-Aldrich), a cytotoxic plant alkaloid causing topoisomerase II inhibition and DNA intercalation, was used as a positive control.

[2] = system: KB (human oral epidermoid carcinoma); test: SRB cytotoxicity assay, KB cells; assay type: cell-based; settings: 72 h, read-out: IC50 KB
Procedure: as §1

[3] = system: HT-29 (human colon carcinoma); test: SRB cytotoxicity assay, HT-29 cells; assay type: cell-based; settings: read-out: IC50 HT-29
Procedure: as §1

[4] = system: MCF-7 (human breast cancer); test: SRB cytotoxicity assay, MCF-7 cells; assay type: cell-based; settings: read-out: IC50 MCF-7
Procedure: as §1

[5] = system: A549 (human lung carcinoma); test: SRB cytotoxicity assay, A549 cells; assay type: cell-based; settings: read-out: IC50 A549
Procedure: as §1

[6] = system: ASK (rat glioma); test: SRB cytotoxicity assay, ASK cells; assay type: cell-based; settings: 72 h, read-out: IC50 ASK
Procedure: as §1

[7] = system: Hek-293 (noncancerous human embryonic kidney cell); test: SRB cytotoxicity assay, Hek-293 cells; assay type: cell-based; settings: read-out: IC50 Hek-293
Procedure: as §1

[8] = system: P-388, KB, HT-29, MCF-7, A549, ASK and Hek-293 cells; test: SRB cytotoxicity assay, panel of tested cell lines (summary statements); assay type: cell-based
Procedure: as §1

[9] = P388, SRB assay, 0.16–20 µg/mL, 48 h
[10] = HT-29, SRB assay, 0.16–20 µg/mL, 72 h
[11] = MCF7, SRB assay, 0.16–20 µg/mL, 72 h
[12] = A549, SRB assay, 0.16–20 µg/mL, 72 h
[13] = Homo sapiens, HEK293, 72 h, SRB assay, non-cancerous cells, 0.16–20 µg/mL, 72 h
[14] = SRB assay, non-cancerous cells, 0.16–20 µg/mL, 72 h
[15] = read-out: IC50 values, range for some of the tested cells
[16] = read-out: IC50 values, range against all tested cell lines

| melting point | Compound | IC50 [1, 9] | IC50 ([2]; SRB assay, 0.16–20 µg/mL) | IC50 [3, 10] | IC50 [4, 11] | IC50 [5, 12] | IC50 ([6]; SRB assay, 0.16–20 µg/mL) | IC50 [7, 13] | IC50 [7, 14] | IC50 [8, 15] | IC50 ([1]; P388, 48 h) | IC50 [2] | IC50 ([3]; HT-29, 72 h) | IC50 ([4]; MCF7, 72 h) | IC50 ([5]; A549, 72 h) | IC50 [6] | IC50 ([7]; Homo sapiens, HEK293, 72 h) | IC50 [8, 16] | IC50 ([8]; P-338, HT-29, MCF-7 and A549, read-out: IC50 values, range over four tested cell lines) |
| --- | --- | --- | --- | --- | --- | --- | --- | --- | --- | --- | --- | --- | --- | --- | --- | --- | --- | --- | --- |
|  | COc1ccc(C2OCC3C(c4ccc(OC)c(OC)c4)OCC23)cc1OC (single isomer, unassigned; (-)) [Compound 1, (–)-epieudesmin] | > 20 µM | > 20 µM | > 20 µM | > 20 µM | > 20 µM | > 20 µM | > 20 µM |  |  |  |  |  |  |  |  |  |  |  |
|  | COc1cc(C2OCC3C(c4ccc(OC)c(OC)c4)OCC23)ccc1O (single isomer, unassigned; (-)) [Compound 2, (–)-phylligenin] | 32.5 ± 2.04 µM | > 20 µM | > 20 µM | 36.1 ± 1.02 µM | > 20 µM | > 20 µM | > 20 µM |  |  |  |  |  |  |  |  |  |  |  |
|  | COc1ccc(C(=O)[C@H]2CO[C@H](c3ccc(OC)c(OC)c3)[C@H]2CO)cc1OC [Compound 3, magnone A] | 8.96 ± 0.7 µM | 20.6 ± 3.88 µM | 27.6 ± 3.53 µM | 4.4 ± 0.1 µM | 37.9 ± 5.42 µM | > 20 µM | > 20 µM | 23.2 ± 1.17 µM | 2.03 to 19.7 µM |  |  |  |  |  |  |  |  |  |
|  | CCC(CCC(C)C1CCC2C3CC=C4CC(OC5OC(CO)C(O)C(O)C5O)CCC4(C)C3CCC12C)C(C)C (stereo not drawn) [Compound 4, stigma-5-en-3-O-β-glucopyranoside] | > 20 µM | > 20 µM | > 20 µM | > 20 µM | > 20 µM | > 20 µM | > 20 µM |  |  |  |  |  |  |  |  |  |  |  |
|  | O=C1c2ccccc2-c2c3c(cc4ccnc1c24)OCO3 [Compound 5, liriodenine] |  |  |  |  |  |  |  |  |  | 9.6 ± 0.58 µM | 11.02 ± 0.11 µM | 10.6 ± 0.36 µM | 9.2 ± 0.25 µM | 9.45 ± 0.18 µM | 10.7 ± 0.95 µM | 8.07 ± 0.11 µM | 6.59 to 11 µM |  |
| 146 to 148 °C | COc1cc(C2OCC(C(=O)c3ccc(OC)c(OC)c3)C2CO)ccc1O (stereo not drawn) [Compound 6, mitrephoran] | > 20 µM | > 20 µM | > 20 µM | 28.63 ± 0.15 µM | > 20 µM | > 20 µM | > 20 µM |  |  |  |  |  |  |  |  |  |  |  |
|  | COc1ccc([C@@H]2Oc3c(OC)cc(CCCO)cc3[C@H]2CO)cc1OC [Compound 7, 3′,4-O-dimethylcedrusin] | 25.9 ± 2.99 µM | 2.03 ± 0.11 µM | 19.7 ± 1.52 µM | 3.77 ± 0.05 µM | 10.3 ± 2.49 µM | > 20 µM | 8.48 ± 4.04 µM |  | 2.03 to 19.7 µM |  |  |  |  |  |  |  |  |  |
|  | COc1cc(OC)cc(C2OCC3C(c4ccc(OC)c(OC)c4)OCC23)c1 (stereo not drawn) [Compound 8, 2-(3,4-dimethoxyphenyl)-6-(3,5-dimethoxyphenyl)-3,7-dioxabicyclo[3.3.0]octane] | > 20 µM | 15.9 ± 0.36 µM | > 20 µM | 21.9 ± 2.96 µM | > 20 µM | > 20 µM | 16.5 ± 0.94 µM |  |  |  |  |  |  |  |  |  |  |  |
|  | COc1cc(/C=C/C(=O)NCCc2ccc(O)cc2)ccc1O [Compound 9, N-trans-feruloyltyramine] | > 20 µM | > 20 µM | > 20 µM | > 20 µM | > 20 µM | > 20 µM | > 20 µM |  |  |  |  |  |  |  |  |  |  |  |
|  | COc1cc2c(cc1OC)-c1c3c(cc4ccnc(c14)C2=O)OCO3 [Compound 10, dicentrinone] |  |  |  |  |  |  |  |  |  | > 20 µM | > 20 µM | > 20 µM | 36.9 ± 1.13 µM | > 20 µM | > 20 µM | > 20 µM |  |  |
|  | COc1cccc2c1-c1c3c(cc4ccnc(c14)C2=O)OCO3 [Compound 11, oxoputerine] | 6.72 ± 0.36 µM | 7.67 ± 0.3 µM | 7.28 ± 0.23 µM | 7.05 ± 0.2 µM | 7.21 ± 0.79 µM | 6.59 ± 0.43 µM | 7.31 ± 0.07 µM |  |  |  |  |  |  |  |  |  | 6.59 to 11 µM |  |
|  | CC1(C(=O)O)CCCC2(C)C1CC(O)C13CC4C(CC21)C4(C)C3 (stereo not drawn) [Compound 14, ciliaric acid] | > 20 µM | > 20 µM | > 20 µM | > 20 µM | > 20 µM | > 20 µM | > 20 µM |  |  |  |  |  |  |  |  |  |  |  |
|  | COc1cccc2c1C(=O)c1c(C)cc(=O)[nH]c1C2=O [Compound 15, 6-methoxymarcanine A] | 9.55 ± 2.83 µM | 38.1 ± 0.52 µM | 10.15 ± 0.07 µM | 8.33 ± 0.63 µM | 12.3 ± 0.37 µM | 38.7 ± 1.12 µM | > 20 µM | > 20 µM | 2.03 to 19.7 µM |  |  |  |  |  |  |  |  | 8.33 to 12.3 µM |
|  | COc1cc2c(cc1O)-c1cc3ccc(O)c(OC)c3c[n+]1CC2 [Compound 16, stepharanine] |  |  |  |  |  |  |  |  |  | > 20 µM | > 20 µM | > 20 µM | > 20 µM | > 20 µM | > 20 µM | > 20 µM |  |  |
|  | Cc1c2ccncc2c(C)c2c1[nH]c1ccccc12 [Ellipticine, reference compound] | 2.03 ± 0.08 µM | 2.36 ± 0.04 µM | 2.4 ± 0.04 µM | 2.15 ± 0.08 µM | 2.64 ± 0.24 µM | 2.56 ± 0.04 µM | 2.68 ± 0.08 µM |  |  |  |  |  |  |  |  |  |  |  |
